This test relates to M. tuberculosis H37Rv growth inhibition with meropenem. Description: dose response, H37Rv, with and without meropenem (AID 434987).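 Note: growth over 7 days at 37 °C before Alamar Blue read on day 9.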
Setting [1] is: M. tuberculosis H37Rv growth inhibition, measured here: IC50 without meropenem.
Setting [2] is: M. tuberculosis H37Rv growth inhibition, measured here: IC90 without meropenem.
The mark [3] stands for this setting: measured here: IC90 with meropenem.

Activity calls are given as the source filed them. The rule behind the calls is not given here. A value given as a limit tells only on which side of the number the result lay.

What is called IC50 is the point on the concentration scale where inhibition reaches its midpoint. The IC90 is the concentration needed for an effect of 90%. `Cc1ccc(-c2nc3ccccc3o2)cc1NC(=S)NC(=O)/C=C/c1ccco1`: the IC50 was 65.8 µM (inactive). Also, under setting [1], the IC50 is > 100 µM. Also, the IC90 under setting [2] is > 100 µM. For the same molecule, the IC90 under setting [3] was > 100 µM.

As to `COc1ccc(-c2cc3nc(C)cc(N4CC(C)CC(C)C4)n3n2)cc1` (stereo not drawn), the IC50 is > 100 µM (inactive). Under setting [1], the IC50 was > 100 µM. Moreover, the IC90 under setting [2] was > 100 µM. Further, the IC90 under setting [3] is > 100 µM.

On to `C=CCNCCCOc1ccc(Cl)cc1C(C)(C)C`, for which the IC50 was 48.1 µM (inactive). In addition, the IC50 under setting [1] was found to be 58.2 µM. The molecule further showed an IC90 under setting [2] of 72.3 µM. In addition, the IC90 under setting [3] was 52.6 µM.

With `O=C(OCn1nnc2ccccc2c1=O)c1ccc2c(=O)n3c(nc2c1)CCC3`, the IC50 is 18 µM (inactive). In addition, under setting [1], the IC50 was found to be 35.4 µM. Also, under setting [2], the IC90 is > 100 µM. The molecule also gave an IC90 under setting [3] of 26.1 µM.

In the case of `O=C(COc1ccccc1)NNC(=O)c1cc2ccccc2oc1=O`, the IC50 was 15.3 µM. Also, the IC50 under setting [1] is > 100 µM. Further, the IC90 under setting [2] is > 100 µM. In addition, the IC90 under setting [3] was > 100 µM.

Consider `CC(C)C(=O)Nc1ccc(NC(=S)NC(=O)c2ccc([N+](=O)[O-])cc2)cc1`, for which the IC50 was > 100 µM (inactive). Besides, the IC50 under setting [1] is > 100 µM. For the same molecule, under setting [2], the 90% effect concentration (IC90) is > 100 µM. Besides, under setting [3], the IC90 is > 100 µM.

In the case of `O=C(OCC(=O)c1ccc[nH]1)C1=COCCO1`, the IC50 was 18.3 µM. The IC50 under setting [1] is 88.8 µM. Moreover, the IC90 under setting [2] was > 100 µM. Also, the IC90 under setting [3] was > 100 µM.

For the molecule `Cc1ccc(C)c(-n2c(-c3ccco3)n[nH]c2=S)c1`, the IC50 is 14 µM. Besides, the IC50 under setting [1] stood at 48.9 µM. Besides, the IC90 under setting [2] is > 100 µM. The 90% effect concentration (IC90) under setting [3] was > 100 µM.

Regarding `CC(=O)c1ccc(NC(=S)Nc2ccc(N3CCOCC3)cc2)cc1`, the IC50 was 21.6 µM. In addition, the IC50 under setting [1] is > 100 µM. In addition, the IC90 under setting [2] is > 100 µM. Besides, under setting [3], the 90% effect concentration (IC90) was > 100 µM.

Turning to `CCOC(=O)Cn1nc(-c2ccc(C)cc2)c2ccccc2c1=O`, the half-maximal inhibitory concentration (IC50) was 17.5 µM. Moreover, under setting [1], the IC50 was > 100 µM. Moreover, the IC90 under setting [2] is > 100 µM. The IC90 under setting [3] is > 50 µM.

In the case of `COc1ccccc1N1CCN(/N=C/c2cccc(OC)c2OC)CC1`, the IC50 was > 100 µM (inactive). For the same molecule, the IC50 under setting [1] is > 100 µM. Moreover, the concentration for an effect of 90% (IC90) under setting [2] is > 100 µM. Also, under setting [3], the IC90 was > 100 µM.

Regarding `Cc1c(C(=O)NCCC2=CCCCC2)sc2ncnc(N3CCCCC3C)c12` (stereo not drawn), the IC50 was 47.5 µM (inactive). Under setting [1], this molecule returned an IC50 of 65.7 µM. The 90% effect concentration (IC90) under setting [2] is > 100 µM. The molecule also returned an IC90 under setting [3] of 52 µM.

Turning to `O=C(COC(=O)Cc1ccc(S(=O)(=O)N2CCCCC2)s1)Nc1ccc2c(c1)OCO2`, the IC50 is 76.2 µM (inactive). The molecule further displayed an IC50 under setting [1] of 68.8 µM. Moreover, under setting [2], the IC90 was > 100 µM. In addition, under setting [3], the IC90 was > 100 µM.

On to `C/C(CC(=O)NCc1ccco1)=N\NC(=O)CC#N`, for which the half-maximal inhibitory concentration (IC50) was 4.68 µM. This molecule had an IC50 under setting [1] of 43.3 µM. In addition, the IC90 under setting [2] was > 100 µM. Under setting [3], this molecule registered an IC90 of 17.6 µM.

As for `Cc1nn(CCc2nn[nH]n2)c2nc(-c3ccc(C4CCCCC4)cc3)cc(C(F)(F)F)c12`, the IC50 was 8.62 µM. Further, the IC50 under setting [1] worked out at 24.9 µM. Under setting [2], the IC90 came out at 50 µM. In addition, the IC90 under setting [3] was > 100 µM.

Consider `Cc1ccc(-n2c(SCC(=O)NCc3ccco3)nc3sc4c(c3c2=O)CC(C)(C)SC4)cc1`, for which the IC50 is > 100 µM (inactive). The IC50 under setting [1] is > 100 µM. Moreover, the IC90 under setting [2] was > 100 µM. Besides, under setting [3], the IC90 was > 100 µM.

For `COCCNC(=O)c1ccc(NC(=O)C2(c3ccccc3)CCCC2)cc1`, the half-maximal inhibitory concentration (IC50) is 8.1 µM. Moreover, under setting [1], the IC50 is 33.4 µM. Further, under setting [2], the IC90 is > 100 µM. In addition, the IC90 under setting [3] was > 100 µM.

Take `CCCCN(CCCC)C(=S)N/N=C/c1c(C)[nH]n(-c2ccccc2)c1=O`: the IC50 is > 100 µM (inactive). Under setting [1], the IC50 was > 100 µM. Besides, under setting [2], the IC90 was > 100 µM. For the same molecule, the IC90 under setting [3] was > 100 µM.

On to `O=c1oc(-c2ccccc2)nc2sc3c(c12)CCC3`, for which the 50% inhibitory concentration (IC50) is 32.2 µM. In addition, under setting [1], the 50% inhibitory concentration (IC50) is > 100 µM. The IC90 under setting [2] is > 100 µM. For the same molecule, the IC90 under setting [3] was > 100 µM.

On to `CNC(=O)Nc1cccc(-c2cc(-c3c(Cl)cccc3Cl)no2)c1`, for which the IC50 is > 100 µM (inactive). Under setting [1], the IC50 is > 100 µM. For the same molecule, the IC90 under setting [2] is > 100 µM. The IC90 under setting [3] was > 100 µM.

With `CCCc1cc(C(=O)Nc2ccc(C(C)=O)cc2)no1`, the IC50 was 11.7 µM (inactive). This molecule also showed an IC50 under setting [1] of 24.4 µM. Also, the IC90 under setting [2] is > 100 µM. Under setting [3], this molecule gave a 90% effect concentration (IC90) of 48.8 µM.

For `Cc1ccccc1CSc1nnc(C)c(=O)n1N`, the IC50 is 19.5 µM (inactive). The IC50 under setting [1] came to 45.4 µM. The IC90 under setting [2] is > 100 µM. For the same molecule, under setting [3], the IC90 is 32.3 µM.

For `CCCCn1nc2cc(C(=O)NCC34CC5CC(CC(C5)C3)C4)ccc2c1OCC`, the IC50 is 55.5 µM (inactive). Besides, the IC50 under setting [1] is > 100 µM. In addition, the IC90 under setting [2] is > 100 µM. In addition, the concentration for an effect of 90% (IC90) under setting [3] was > 100 µM.

As to `CN1C(=O)/C(=C/c2ccc(C(=O)NC3CCCC3)cc2)Oc2ccccc21`, the IC50 is > 100 µM (inactive). Further, the IC50 under setting [1] was > 100 µM. Also, the 90% effect concentration (IC90) under setting [2] is > 100 µM. Besides, the IC90 under setting [3] is > 100 µM.

On to `O=C(O)CCC/C=C\C[C@@H]1[C@@H](/C=C/[C@@H](O)COc2cccc(Cl)c2)[C@H](O)C[C@@H]1O`, for which the IC50 is > 100 µM (inactive). Moreover, the IC50 under setting [1] was > 100 µM. In addition, the IC90 under setting [2] was > 100 µM. For the same molecule, the IC90 under setting [3] is > 100 µM.

For the molecule `COc1cc(NC(=O)c2ccccc2Cl)ccc1NC(=O)c1ccco1`, the IC50 is 19.6 µM (inactive). For the same molecule, the IC50 under setting [1] was 32.9 µM. Also, under setting [2], the IC90 was > 50 µM. In addition, under setting [3], the concentration for an effect of 90% (IC90) was > 25 µM.

In the case of `CCOC(=O)/C=c1\s/c(=C\c2c(OC)ccc3ccccc23)c(=O)n1CC(=O)NCC1CCCO1` (stereo not drawn), the IC50 is > 100 µM (inactive). Further, the half-inhibitory concentration (IC50) under setting [1] was > 100 µM. The concentration for an effect of 90% (IC90) under setting [2] is > 100 µM. The concentration for an effect of 90% (IC90) under setting [3] is > 100 µM.

With `O=C(Nc1nc(-c2ccc(F)c(F)c2)cs1)c1cnccn1`, the half-inhibitory concentration (IC50) is 14.6 µM. Further, under setting [1], the IC50 is > 100 µM. Further, the IC90 under setting [2] is > 100 µM. In addition, the IC90 under setting [3] is > 100 µM.

With `CCc1ccc2nc(/N=C(\N)NC(=O)c3ccccc3)nc(C)c2c1`, the half-maximal inhibitory concentration (IC50) was 1.02 µM. Also, the IC50 under setting [1] amounted to 22.4 µM. Under setting [2], the IC90 is > 50 µM. Moreover, the IC90 under setting [3] was > 100 µM.

For `CC1CCCN(C(=O)C2CCN(c3ncnc4c3nc3n4CCCCC3)CC2)C1` (stereo not drawn), the IC50 was 46.7 µM (inactive). For the same molecule, the IC50 under setting [1] came to 89.8 µM. In addition, the IC90 under setting [2] was > 100 µM. Also, under setting [3], the IC90 is 49.7 µM.

On to `CCOC(=O)COc1nc(-c2ccc(Cl)cc2)cc(-c2ccco2)c1C#N`, for which the IC50 is 3.82 µM. Moreover, the IC50 under setting [1] is > 100 µM. Moreover, the 90% effect concentration (IC90) under setting [2] was > 100 µM. The IC90 under setting [3] is > 100 µM.

As for `COc1cccc(-c2ccc(-c3noc(-c4ccccc4F)n3)c(OC)n2)c1`, the IC50 is 9.65 µM. Moreover, under setting [1], the IC50 is > 100 µM. The IC90 under setting [2] is > 100 µM. Moreover, the IC90 under setting [3] is > 12.5 µM.
